According to the supplement of paper PMC11451515:

Tests used:
Settings in all cases: 48 h
NOMO1 [1] = test: cell viability relative to DMSO control; higher = less cytotoxic
In short: (§1)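 Cells were incubated for 48 h at 37°C before CellTiter-Glo One luminescence was read. The cells were NOMO1 or SEM (500 cells/well) or P12-Ichikawa (1000 cells/well) leukemia cells, adapted for at least four passages in each medium and seeded in 1536-well plates (5 μl). Dosing used library compounds in DMSO applied by pin over 11 threefold points, 47 μM to 0.79 nM. Viability is the per-plate percentage of DMSO wells, with cell-free wells as background.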

P12-Ichikawa [2] = test: as above
In short: as §1

SEM cells [3] = test: as above
In short: as §1

NOMO1 [4] = test: AUC of viability dose-response curve (% viability x log10 dose units); higher = less sensitive
In short: (§2)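 Medium-adapted leukemia cells in 1536-well plates, at 500 or 1000 cells/well, were incubated for 48 h at 37°C with library compounds in DMSO at 11 threefold doses from 47 μM to 0.79 nM. CellTiter-Glo One luminescence normalised per plate to DMSO and cell-free wells was fitted with a four-parameter log-logistic model over log10 doses. Area under the curve was integrated from this fit by trapezoidal rule, with curves beyond full viability scaled and failed quality-control curves removed.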

P12-Ichikawa [5] = test: as above
In short: as §2

SEM cells [6] = test: as above
In short: as §2

CCOC(=O)[C@@]1(CCCCCCOc2ccc(Cl)cc2)CO1
cell viability [%]
Settings	NOMO1 [1]	P12-Ichikawa [2]	SEM cells [3]
HPLM + 10% dialyzed FBS, 0.000781 µM	–	113	95.4
HPLM + 10% dialyzed FBS, 0.00234 µM	–	108	103
HPLM + 10% dialyzed FBS, 0.00702 µM	–	117	111
HPLM + 10% dialyzed FBS, 0.0211 µM	–	114	112
HPLM + 10% dialyzed FBS, 0.0632 µM	–	112	113
HPLM + 10% dialyzed FBS, 0.19 µM	–	113	95.9
HPLM + 10% dialyzed FBS, 0.569 µM	–	111	115
HPLM + 10% dialyzed FBS, 1.71 µM	–	105	94.3
HPLM + 10% dialyzed FBS, 5.12 µM	–	105	95.2
HPLM + 10% dialyzed FBS, 15.4 µM	–	95.2	51.3
HPLM + 10% dialyzed FBS, 46.1 µM	–	7.68	23.9
RPMI 5 mM glucose + 10% FBS, 0.000781 µM	120	108	114
RPMI 5 mM glucose + 10% FBS, 0.00234 µM	118	115	119
RPMI 5 mM glucose + 10% FBS, 0.00702 µM	109	114	126
RPMI 5 mM glucose + 10% FBS, 0.0211 µM	107	117	120
RPMI 5 mM glucose + 10% FBS, 0.0632 µM	108	118	125
RPMI 5 mM glucose + 10% FBS, 0.19 µM	115	111	116
RPMI 5 mM glucose + 10% FBS, 0.569 µM	106	107	115
RPMI 5 mM glucose + 10% FBS, 1.71 µM	106	110	98.5
RPMI 5 mM glucose + 10% FBS, 5.12 µM	96.5	115	102
RPMI 5 mM glucose + 10% FBS, 15.4 µM	86.7	104	32.3
RPMI 5 mM glucose + 10% FBS, 46.1 µM	48.1	12.1	12.6
RPMI 5 mM glucose + 10% dialyzed FBS, 0.000781 µM	117	121	102
RPMI 5 mM glucose + 10% dialyzed FBS, 0.00234 µM	117	123	107
RPMI 5 mM glucose + 10% dialyzed FBS, 0.00702 µM	114	125	107
RPMI 5 mM glucose + 10% dialyzed FBS, 0.0211 µM	112	122	106
RPMI 5 mM glucose + 10% dialyzed FBS, 0.0632 µM	111	114	103
RPMI 5 mM glucose + 10% dialyzed FBS, 0.19 µM	111	111	107
RPMI 5 mM glucose + 10% dialyzed FBS, 0.569 µM	113	116	114
RPMI 5 mM glucose + 10% dialyzed FBS, 1.71 µM	108	107	102
RPMI 5 mM glucose + 10% dialyzed FBS, 5.12 µM	107	113	95
RPMI 5 mM glucose + 10% dialyzed FBS, 15.4 µM	96	107	50.4
RPMI 5 mM glucose + 10% dialyzed FBS, 46.1 µM	56.8	20.8	17

AUC of viability dose-response curve
Settings	NOMO1 [4]	P12-Ichikawa [5]	SEM cells [6]
HPLM + 10% dialyzed FBS	458	448	428
RPMI 5 mM glucose + 10% FBS	444	452	413
RPMI 5 mM glucose + 10% dialyzed FBS	456	454	426
